Reference: patent US11053204B2, “Pyrimidinyloxy benzene derivatives as herbicides” (FMC Corporation, priority 2015, dated 2021)

What was measured:
[1] = test system: pigweed (Amaranthus retroflexus); test: Test C postemergence, plant response rating; format: in vivo; details: for Pigweed plant response rating / pest or weed control at 62 g/ha / pest or weed control at 125 g/ha: scale 0 to 100 (0 no effect, 100 complete control)
How it was run: (§1)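 Greenhouse plants rated visually against untreated controls 13–15 d after treatment, scale 0 = no effect to 100 = complete control. Postemergence sprays went onto potted plants 2–18 cm tall (1–4 leaves); preemergence sprays onto soil freshly sown in loam–sand or silt loam, chemicals formulated in non-phytotoxic solvent with surfactant.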

[2] = test system: johnsongrass (Sorghum halepense); test: Test C postemergence, plant response rating; format: in vivo; details: for Plant response rating, Johnsongrass: scale 0 to 100; for Johnsongrass plant response rating: scale 0 to 100 (0 no effect, 100 complete control)
How it was run: as §1

[3] = Amaranthus retroflexus, post-emergence, 16 g ai/ha, scale 0 to 100
[4] = Amaranthus retroflexus, post-emergence, 31 g ai/ha, scale 0 to 100
[5] = Amaranthus retroflexus, post-emergence, 62 g ai/ha
[6] = Amaranthus retroflexus, post-emergence, 125 g ai/ha

SMILES | Plant response rating, Pigweed ([1]; 16 g ai/ha, scale 0 to 100) | Plant response rating, Pigweed ([1]; 31 g ai/ha, scale 0 to 100) | Pigweed plant response rating ([1]; 62 g ai/ha) | Pigweed plant response rating ([1]; 125 g ai/ha) | pest or weed control at 4 g/ha ([1]; Amaranthus retroflexus, post-emergence, 4 g ai/ha, scale of 0 to 100) [%] | pest or weed control at 8 g/ha ([1]; Amaranthus retroflexus, post-emergence, 8 g ai/ha, scale of 0 to 100) [%] | pest or weed control at 16 g/ha [1, 3] [%] | pest or weed control at 31 g/ha [1, 4] [%] | pest or weed control at 62 g/ha [1, 5] [%] | pest or weed control at 125 g/ha [1, 6] [%] | Plant response rating, Johnsongrass ([2]; 16 g ai/ha) | Plant response rating, Johnsongrass ([2]; 31 g ai/ha) | Johnsongrass plant response rating ([2]; 62 g ai/ha) | Johnsongrass plant response rating ([2]; 125 g ai/ha) | Plant response rating, Pigweed ([1]; 16 g ai/ha, scale of 0 to 100)
N#CCCOC(=O)c1c(Br)cccc1Oc1ncc(Cl)cn1 [Compound 7] | 35 | 40 | 60 | 70 |  |  |  |  |  |  |  |  |  |  | 
CCCOC(=O)c1c(Br)cccc1Oc1ncc(Cl)cn1 [Compound 13, propyl 2-bromo-6-[(5-chloro-2-pyrimidinyl)oxy]benzoate] |  |  |  |  | 30 | 60 | 75 | 70 |  |  |  |  |  |  | 
O=C(OCCC(F)(F)F)c1c(Cl)cccc1Oc1ncc(Cl)cn1 [Compound 15, 3,3,3-trifluoropropyl 2-chloro-6-[(5-chloro-2-pyrimidinyl)oxy]benzoate] |  |  |  |  |  |  | 90 | 90 | 95 | 98 |  |  |  |  | 
CC(CC(F)(F)F)OC(=O)c1c(Br)cccc1Oc1ncc(Cl)cn1 (centres unmarked) [Compound 16, 3,3,3-trifluoro-1-methylpropyl 2-bromo-6-[(5-chloro-2-pyrimidinyl)oxy]benzoate] |  |  |  |  |  |  | 50 | 75 | 85 | 50 |  |  |  |  | 
O=C(OCCCC(F)(F)F)c1c(Br)cccc1Oc1ncc(Cl)cn1 [Compound 20, 4,4,4-trifluorobutyl 2-bromo-6-[(5-chloro-2-pyrimidinyl)oxy]benzoate] |  |  |  |  |  |  | 85 | 95 | 98 | 95 |  |  |  |  | 
C=CCCOC(=O)c1c(Br)cccc1Oc1ncc(Cl)cn1 [Compound 21, 3-buten-1-yl 2-bromo-6-[(5-chloro-2-pyrimidinyl)oxy]benzoate] |  |  |  |  |  |  | 85 | 75 | 90 | 90 |  |  |  |  | 
C=CCOC(=O)c1c(Br)cccc1Oc1ncc(Cl)cn1 [Compound 22, 2-propen-1-yl 2-bromo-6-[(5-chloro-2-pyrimidinyl)oxy]benzoate] |  |  |  |  |  |  | 60 | 70 | 70 | 95 |  |  |  |  | 
O=C(OCC(F)(F)C(F)(F)F)c1c(Br)cccc1Oc1ncc(Cl)cn1 [Compound 23, 2,2,3,3,3-pentafluoropropyl 2-bromo-6-[(5-chloro-2-pyrimidinyl)oxy]benzoate] |  |  |  |  |  |  | 60 | 75 | 70 | 85 | 0 | 15 | 15 | 20 | 
O=C(OCCC(F)(F)F)c1c(Br)cccc1Oc1ncc(Cl)cn1 [Compound 26, 3,3,3-trifluoropropyl 2-bromo-6-[(5-chloro-2-pyrimidinyl)oxy]benzoate] |  |  |  |  |  |  | 75 | 98 | 98 | 100 | 10 | 20 | 20 | 25 | 
O=C(OCCC(F)(F)F)c1c(Br)cccc1Oc1ncc(Br)cn1 [Compound 33] | 95 | 95 | 98 | 100 |  |  |  |  |  |  | 10 | 10 | 20 | 20 | 
O=C(OCC(F)(F)F)c1c(Br)cccc1Oc1ncc(Cl)cn1 [Compound 35] | 80 | 70 | 90 | 98 |  |  |  |  |  |  | 0 | 5 | 10 | 10 | 
N#Cc1cccc(Oc2ncc(Cl)cn2)c1CCCC(F)(F)F [Compound 72] | 80 | 85 | 85 | 100 |  |  |  |  |  |  | 5 | 10 | 10 | 10 | 
N#Cc1cccc(Oc2ncc(Cl)cn2)c1CCCCC(F)(F)F [Compound 73, 3-[(5-chloro-2-pyrimidinyl)oxy]-2-(5,5,5-trifluoropentyl)benzonitrile] |  |  |  |  |  |  | 90 | 85 | 100 | 100 | 5 | 10 | 20 | 20 | 
O=C(CCCC(F)(F)F)c1c(Br)cccc1Oc1ncc(Cl)cn1 [Compound 77] |  | 98 | 100 | 100 |  |  |  |  |  |  |  |  |  |  | 95
